Measured values as given in ChEMBL document CHEMBL6071207, “In Vivo-Active Soluble Epoxide Hydrolase-Targeting PROTACs with Improved Potency and Stability” (ACS Med Chem Lett, 2024).
Values belong to the compound of their own block, whether it stands above or below them. Active and inactive are the calls of the source. The rule behind the calls is not given here.

Experiments:
[1] = biological target: T1, Bifunctional epoxide hydrolase 2 (Mus musculus, UniProt P34914); test: Inhibition of mouse recombinant sEH using fluorogenic substrate
T1 sequence (P34914 whole entry): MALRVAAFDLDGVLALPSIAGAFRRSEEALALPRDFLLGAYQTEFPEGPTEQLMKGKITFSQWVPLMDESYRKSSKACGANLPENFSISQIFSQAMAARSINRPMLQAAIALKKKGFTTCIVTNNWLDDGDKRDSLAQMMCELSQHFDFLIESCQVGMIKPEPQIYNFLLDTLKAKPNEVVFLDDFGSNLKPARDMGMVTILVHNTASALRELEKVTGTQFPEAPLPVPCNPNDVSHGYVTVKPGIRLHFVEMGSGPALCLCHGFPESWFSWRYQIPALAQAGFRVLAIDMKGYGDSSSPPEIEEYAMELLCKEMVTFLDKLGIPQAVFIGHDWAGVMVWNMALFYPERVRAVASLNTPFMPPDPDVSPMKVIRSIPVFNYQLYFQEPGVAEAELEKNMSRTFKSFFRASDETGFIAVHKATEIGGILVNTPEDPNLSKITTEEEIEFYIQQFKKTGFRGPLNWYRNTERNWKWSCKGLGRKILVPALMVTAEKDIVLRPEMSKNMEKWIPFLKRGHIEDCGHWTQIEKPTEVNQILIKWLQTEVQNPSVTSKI

[2] = system: HepG2; test: Cytotoxicity against human HepG2 cells assessed as cell viability at 1 uM incubated for 24 hrs by MTT assay; conditions: HepG2, 24 h, read-out: Activity
[3] = Chemical stability of compound in cell culture medium assessed as degradation measured after 24 hrs by LC-MS analysis; format: physicochemical; conditions: read-out: Drug degradation
[4] = Chemical stability of compound in cell culture medium assessed as half life measured for 24 hrs by LC-MS analysis; format: physicochemical
[5] = Metabolic stability in mouse liver microsome assessed as half life incubated for 5 to 45 mins in presence of NADPH by UPLC-MS/MS analysis; format: ADME; conditions: liver microsomes, time 5-45 min
[6] = Metabolic stability in mouse liver microsome assessed as intrinsic clearance incubated for 5 to 45 mins in presence of NADPH by UPLC-MS/MS analysis; format: ADME; conditions: liver microsomes, time 5-45 min, read-out: CLH
[7] = Metabolic stability in mouse liver microsome assessed as parent compound remaining incubated for 5 to 45 mins in absence of NADPH by UPLC-MS/MS analysis; format: ADME; conditions: microsomes, time 5-45 min
[8] = system: HEK293T; test: Inhibition of IRE1alpha phosphorylation in HEK293T cells at 100 nM pretreated with compound for 12 hrs followed by thapsigargin addition and measured after 24 hrs by immunoblotting analysis; format: cell-based; conditions: Homo sapiens, time 36.0 hrs
[9] = biological target: T2, Eukaryotic translation initiation factor 2-alpha kinase 3 (Homo sapiens) (UniProt Q9NZJ5); test: Inhibition of PERK phosphorylation in HEK293T cells at 100 nM pretreated with compound for 12 hrs followed by thapsigargin addition and measured after 24 hrs by immunoblotting analysis; format: cell-based; conditions: time 36.0 hrs
T2 sequence (whole entry): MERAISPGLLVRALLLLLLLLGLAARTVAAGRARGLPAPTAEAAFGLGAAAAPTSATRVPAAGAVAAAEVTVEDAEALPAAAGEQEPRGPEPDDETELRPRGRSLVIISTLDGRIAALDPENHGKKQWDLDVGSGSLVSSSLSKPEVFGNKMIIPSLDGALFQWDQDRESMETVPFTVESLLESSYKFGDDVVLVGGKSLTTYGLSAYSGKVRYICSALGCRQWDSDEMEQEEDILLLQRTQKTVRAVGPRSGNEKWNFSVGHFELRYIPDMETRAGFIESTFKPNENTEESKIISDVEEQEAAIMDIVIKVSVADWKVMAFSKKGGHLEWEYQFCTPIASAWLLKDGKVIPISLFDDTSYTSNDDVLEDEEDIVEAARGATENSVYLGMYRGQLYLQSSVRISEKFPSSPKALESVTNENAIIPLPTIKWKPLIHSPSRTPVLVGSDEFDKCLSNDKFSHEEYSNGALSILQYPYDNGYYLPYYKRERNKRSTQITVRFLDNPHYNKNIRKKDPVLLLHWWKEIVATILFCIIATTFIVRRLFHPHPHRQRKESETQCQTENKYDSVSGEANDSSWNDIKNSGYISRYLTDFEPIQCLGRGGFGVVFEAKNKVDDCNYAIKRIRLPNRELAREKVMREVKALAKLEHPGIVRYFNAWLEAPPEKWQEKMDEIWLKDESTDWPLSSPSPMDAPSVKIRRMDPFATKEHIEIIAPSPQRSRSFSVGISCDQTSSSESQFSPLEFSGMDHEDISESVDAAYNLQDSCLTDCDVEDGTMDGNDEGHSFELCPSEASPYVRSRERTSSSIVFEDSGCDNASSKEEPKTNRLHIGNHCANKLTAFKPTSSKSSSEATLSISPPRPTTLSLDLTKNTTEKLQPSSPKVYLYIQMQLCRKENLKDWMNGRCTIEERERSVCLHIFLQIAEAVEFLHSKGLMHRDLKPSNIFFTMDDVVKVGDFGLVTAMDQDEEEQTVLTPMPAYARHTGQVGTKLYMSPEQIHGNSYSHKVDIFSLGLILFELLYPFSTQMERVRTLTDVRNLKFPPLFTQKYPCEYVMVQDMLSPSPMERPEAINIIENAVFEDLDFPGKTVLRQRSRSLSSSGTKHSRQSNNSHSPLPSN

[10] = biological target: Eukaryotic translation initiation factor 2 subunit 1 (Homo sapiens) (UniProt P05198); test: Inhibition of eIF2alpha phosphorylation in HEK293T cells at 100 nM pretreated with compound for 12 hrs followed by thapsigargin addition and measured after 24 hrs by immunoblotting analysis; format: cell-based; conditions: time 36.0 hrs
[11] = biological target: Eukaryotic translation initiation factor 2 subunit 1 (Homo sapiens) (UniProt P05198); test: Inhibition of eIF2alpha phosphorylation in HEK293T cells at 100 to 1000 nM pretreated with compound for 12 hrs followed by thapsigargin addition and measured after 24 hrs by immunoblotting analysis; format: cell-based; conditions: dose 100-1000 nM, time 36.0 hrs
[12] = system: HEK293T; test: Inhibition of IRE1alpha phosphorylation in HEK293T cells at 100 to 1000 nM pretreated with compound for 12 hrs followed by thapsigargin addition and measured after 24 hrs by immunoblotting analysis; format: cell-based; conditions: Homo sapiens, dose 100-1000 nM, time 36.0 hrs
[13] = biological target: T2, Eukaryotic translation initiation factor 2-alpha kinase 3 (Homo sapiens); test: Inhibition of PERK phosphorylation in HEK293T cells at 100 to 1000 nM pretreated with compound for 12 hrs followed by thapsigargin addition and measured after 24 hrs by immunoblotting analysis; format: cell-based; conditions: dose 100-1000 nM, time 36.0 hrs
[14] = system: HEK-293T; test: Induction of apoptosis in HEK293T cells assessed as chromatin condensation by measuring improvement in cell survival pretreated with compound for 12 hrs followed by thapsigargin addition and measured after 24 hrs by Hoechst33258 staining based analysis; format: functional; conditions: Homo sapiens, time 36.0 hrs
[15] = system: HEK-293T; test: Induction of apoptosis in HEK293T cells assessed as reduction in thapsigargin-induced cell death pretreated with compound for 12 hrs followed by thapsigargin addition and measured after 24 hrs by propidium iodide staining based analysis; format: functional; conditions: Homo sapiens, time 36.0 hrs
[16] = Half life in male CD-1 mouse at 10 mg/kg, ip measured up to 24 hrs by LC-MS/MS analysis; format: ADME, organism-based; conditions: in vivo
[17] = Tmax in male CD-1 mouse at 10 mg/kg, ip measured up to 24 hrs by LC-MS/MS analysis; format: ADME, organism-based; conditions: in vivo
[18] = Cmax in male CD-1 mouse at 10 mg/kg, ip measured up to 24 hrs by LC-MS/MS analysis; format: ADME, organism-based; conditions: in vivo
[19] = AUC (0 to infinity) in male CD-1 mouse at 10 mg/kg, ip measured up to 24 hrs by LC-MS/MS analysis; format: ADME, organism-based; conditions: in vivo
[20] = MRT (0 to infinity) in male CD-1 mouse at 10 mg/kg, ip measured up to 24 hrs by LC-MS/MS analysis; format: ADME, organism-based; conditions: in vivo
[21] = biological target: T3, Protein cereblon/Bifunctional epoxide hydrolase 2 (Mus musculus) (UniProt P34914+Q8C7D2); test: In-vivo PROTAC activity at sEH/CRBN in Male C57BL/6J mouse assessed as reduction in sEH level in liver at 12 mg/kg, ip measured after 24 hrs by immunoblotting analysis; format: functional, organism-based
[22] = biological target: T3, Protein cereblon/Bifunctional epoxide hydrolase 2 (Mus musculus); test: In-vivo PROTAC activity at sEH/CRBN in Male C57BL/6J mouse assessed as reduction in sEH level in BAT at 12 mg/kg, ip measured after 24 hrs by immunoblotting analysis; format: functional, organism-based

T3 sequence (Q8C7D2 whole entry, looked up, one chain of several): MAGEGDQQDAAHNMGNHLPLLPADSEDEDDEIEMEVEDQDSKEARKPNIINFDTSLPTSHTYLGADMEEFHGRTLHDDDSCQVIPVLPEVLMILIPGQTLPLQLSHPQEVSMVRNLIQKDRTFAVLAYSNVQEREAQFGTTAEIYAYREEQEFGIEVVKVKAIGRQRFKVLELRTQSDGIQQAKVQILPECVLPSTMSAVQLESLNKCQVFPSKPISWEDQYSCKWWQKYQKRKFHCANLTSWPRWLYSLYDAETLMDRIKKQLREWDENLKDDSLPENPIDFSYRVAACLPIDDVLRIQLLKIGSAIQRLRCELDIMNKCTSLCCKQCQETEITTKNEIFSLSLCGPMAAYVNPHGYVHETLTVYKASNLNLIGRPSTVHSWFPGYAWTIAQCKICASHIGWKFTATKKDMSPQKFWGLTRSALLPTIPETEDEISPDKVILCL
Eukaryotic translation initiation factor 2 subunit 1 (Homo sapiens), sequence (P05198 whole entry): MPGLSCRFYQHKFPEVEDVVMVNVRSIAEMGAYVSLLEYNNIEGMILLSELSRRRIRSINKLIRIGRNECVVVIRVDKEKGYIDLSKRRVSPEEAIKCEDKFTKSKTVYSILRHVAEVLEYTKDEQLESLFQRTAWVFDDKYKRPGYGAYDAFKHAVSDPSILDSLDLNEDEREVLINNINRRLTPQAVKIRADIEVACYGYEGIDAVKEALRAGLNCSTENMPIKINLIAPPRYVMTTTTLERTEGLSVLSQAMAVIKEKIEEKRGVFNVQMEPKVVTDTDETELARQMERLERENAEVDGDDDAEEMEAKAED

SMILES: O=C1CCC(N2C(=O)c3cccc(N4CCN(C(=O)CCCCCCCCNC(=O)c5ccc(O[C@H]6CC[C@H](NC(=O)Nc7ccc(OC(F)(F)F)cc7)CC6)cc5)CC4)c3C2=O)C(=O)N1 (stereo partly specified)
IC50 [1]: 0.9 nM | viability at 1 µM [2]: -47%

SMILES: O=C1CCC(N2C(=O)c3ccc(N4CCN(CC5CCN(C(=O)CCCCCCCCNC(=O)c6ccc(O[C@H]7CC[C@H](NC(=O)Nc8ccc(OC(F)(F)F)cc8)CC7)cc6)CC5)CC4)cc3C2=O)C(=O)N1 (stereo partly specified)
inhibition [11]: Active | inhibition [12]: Active | IC50 [1]: 210 nM | half-life [4]: > 24 h | half-life [5]: > 2 h | CLint scaled [6]: 43 mL/min/kg | Stability [7]: > 99% | inhibition [13]: Active | Activity [14]: Active | Activity [15]: Active | viability at 1 µM [2]: -38% | half-life [16]: 12 h | Tmax [17]: 6.7 h | Cmax [18]: 2800 ng/mL | AUC(0-inf) [19]: 58000 ng·h/mL | MRT inf [20]: 17 h | Activity [21]: Active | Activity [22]: Active

SMILES: O=C1CCC(N2C(=O)c3cc(F)c(N4CCN(CC5CCN(C(=O)CCCCCCCCNC(=O)c6ccc(O[C@H]7CC[C@H](NC(=O)Nc8ccc(OC(F)(F)F)cc8)CC7)cc6)CC5)CC4)cc3C2=O)C(=O)N1 (stereo partly specified)
IC50 [1]: 20 nM

SMILES: O=C1CCC(N2C(=O)c3ccc(N4CCN(C(=O)CCCCCCCCNC(=O)c5ccc(O[C@H]6CC[C@H](NC(=O)Nc7ccc(OC(F)(F)F)cc7)CC6)cc5)CC4)cc3C2=O)C(=O)N1 (stereo partly specified)
IC50 [1]: 9.9 nM | half-life [4]: > 24 h | half-life [5]: 0.517 h | CLint scaled [6]: 170 mL/min/kg | Stability [7]: > 99%

The next lines start with results.

degraded at 24 h [3]: ~100% | half-life [4]: 1.1 h | half-life [5]: 0.00983 h | CLint scaled [6]: 9200 mL/min/kg | Stability [7]: 90% | inhibition [9]: inactive | inhibition [10]: inactive
SMILES: O=C(COc1cccc2c1C(=O)N(C1CCC(=O)NC1=O)C2=O)NCCOCCOCCOCCOCCNC(=O)c1ccc(O[C@H]2CC[C@H](NC(=O)Nc3ccc(OC(F)(F)F)cc3)CC2)cc1 (stereo partly specified)
inhibition [8]: inactive

IC50 [1]: 4.6 nM
SMILES: O=C1CCC(N2C(=O)c3cccc(NCCOCCOCCOCCOCCC(=O)N4CCC(NC(=O)Nc5ccc(OC(F)(F)F)cc5)CC4)c3C2=O)C(=O)N1 (stereo unspecified)

IC50 [1]: 4.6 nM | half-life [16]: 5.8 h | Tmax [17]: 0.33 h | Cmax [18]: 3000 ng/mL | AUC(0-inf) [19]: 61000 ng·h/mL | MRT inf [20]: 4 h
SMILES: O=C1CCC(N2C(=O)c3ccc(N4CCN(CC5CCN(C(=O)CCCCCCCCC(=O)N6CCC(NC(=O)Nc7ccc(OC(F)(F)F)cc7)CC6)CC5)CC4)cc3C2=O)C(=O)N1 (stereo unspecified)
